Reference: the supplement of paper PMC4862054

Assays:
Details in all cases: incubation time: 72 h
Hs578T [1] = test: normalised response (% of control), CellTiter-Glo; higher = more viable cells (100 = DMSO, 0 = benzethonium chloride kill control)
How it was run: (§1)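 Compound was dispensed into 384-well plates at 5 concentrations in 10-fold steps spanning a 10,000-fold range specific to that compound. Breast cancer cell lines were added as 20 µl suspension and left for 72 h before CellTox Green fluorescence (485/520 nm) and then CellTiter-Glo luminescence, read after 10 min at room temperature. Each reported value is the normalised signal at one concentration, with 0.1 % DMSO set at 100 and a positive kill control at 0 on each plate.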

HDQ-P1 [2] = test: as above
How it was run: as §1

CAL-148 [3] = test: as above
How it was run: as §1

BT-474 [4] = test: as above
How it was run: as §1

MFM-223 [5] = test: as above
How it was run: as §1

MDA-MB-468 [6] = test: as above
How it was run: as §1

CAL-85-1 [7] = test: as above
How it was run: as §1

BT-549 [8] = test: as above
How it was run: as §1

CAL-120 [9] = test: as above
How it was run: as §1

MDA-MB-231 [10] = test: as above
How it was run: as §1

DU-4475 [11] = test: as above
How it was run: as §1

HCC1143 [12] = test: as above
How it was run: as §1

MDA-MB-453 [13] = test: as above
How it was run: as §1

MCF-10A = test: as above
How it was run: as §1

HCC1599 [14] = test: as above
How it was run: as §1

MDA-MB-436 [15] = test: as above
How it was run: as §1

HCC1937 [16] = test: as above
How it was run: as §1

SK-BR-3 [17] = test: as above
How it was run: as §1

CAL-51 [18] = test: as above
How it was run: as §1

Hs578T [19] = test: normalised viability (% of control), CellTiter-Blue; higher = more viable cells (100 = DMSO, 0 = benzethonium chloride kill control)
Experimental: (§2)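 DSRT, CellTiter-Blue viability, 72 h incubation. Signal is normalised to DMSO and benzethonium chloride controls. Value is the normalised response at dose 1.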

HDQ-P1 [20] = test: as above
Experimental: as §2

CAL-148 [21] = test: as above
Experimental: as §2

BT-474 [22] = test: as above
Experimental: as §2

MFM-223 [23] = test: as above
Experimental: as §2

MDA-MB-468 [24] = test: as above
Experimental: as §2

CAL-85-1 [25] = test: as above
Experimental: as §2

BT-549 [26] = test: as above
Experimental: as §2

CAL-120 [27] = test: as above
Experimental: as §2

MDA-MB-231 [28] = test: as above
Experimental: as §2

DU-4475 [29] = test: as above
Experimental: as §2

HCC1143 [30] = test: as above
Experimental: as §2

MDA-MB-453 [31] = test: as above
Experimental: as §2

HCC1599 [32] = test: as above
Experimental: as §2

MDA-MB-436 [33] = test: as above
Experimental: as §2

HCC1937 [34] = test: as above
Experimental: as §2

SK-BR-3 [35] = test: as above
Experimental: as §2

CAL-51 [36] = test: as above
Experimental: as §2

SMILES	normalised response (Hs578T [1])	normalised response (HDQ-P1 [2])	normalised response (CAL-148 [3])	normalised response (BT-474 [4])	normalised response (MFM-223 [5])	normalised response (MDA-MB-468 [6])	normalised response (CAL-85-1 [7])	normalised response (BT-549 [8])	normalised response (CAL-120 [9])	normalised response (MDA-MB-231 [10])	normalised response (DU-4475 [11])	normalised response (HCC1143 [12])	normalised response (MDA-MB-453 [13])	normalised response (MCF-10A)	normalised response (HCC1599 [14])	normalised response (MDA-MB-436 [15])	normalised response (HCC1937 [16])	normalised response (SK-BR-3 [17])	normalised response (CAL-51 [18])	normalised viability (Hs578T [19])	normalised viability (HDQ-P1 [20])	normalised viability (CAL-148 [21])	normalised viability (BT-474 [22])	normalised viability (MFM-223 [23])	normalised viability (MDA-MB-468 [24])	normalised viability (CAL-85-1 [25])	normalised viability (BT-549 [26])	normalised viability (CAL-120 [27])	normalised viability (MDA-MB-231 [28])	normalised viability (DU-4475 [29])	normalised viability (HCC1143 [30])	normalised viability (MDA-MB-453 [31])	normalised viability (HCC1599 [32])	normalised viability (MDA-MB-436 [33])	normalised viability (HCC1937 [34])	normalised viability (SK-BR-3 [35])	normalised viability (CAL-51 [36])
c1ccc2c(CCNc3ccc(Nc4ccncc4)cc3)c[nH]c2c1 [Serdemetan] (1 nM)	99.2%	96.7%	91%	93.8%	98.8%	98.8%	101%	102%	96.8%	97.1%	95.7%	98.5%	112%	86.1%	115%	86.4%	93.9%	104%	114%	97.5%	99.9%	107%	99.8%	82.8%	105%	85.3%	106%	79%	98.5%	95.2%	86.3%	99.2%	92.4%	104%	95.9%	95%	110%
Oc1ccc2c(c1)CC[C@H](c1ccccc1)[C@@H]2c1ccc(OCCN2CCCC2)cc1 [Lasofoxifene] (0.1 nM)	99.6%	104%	109%	106%	103%	106%	95.4%	97.1%	107%	106%	102%	104%	115%	109%	104%	99.2%	100%	113%	86.3%	96.6%	87%	115%	107%	89.1%	99.4%	83.1%	114%	83.3%	90.2%	93.1%	76.4%	95%	92.2%	102%	80.3%	97.1%	104%
O=C(Nc1cccnc1)N1CCC(Cc2cccc(Oc3ccc(C(F)(F)F)cn3)c2)CC1 [PF-3845] (1 nM)	106%	103%	114%	98.6%	110%	97.9%	101%	107%	107%	110%	95.8%	108%	117%	113%	95.8%	105%	98.4%	113%	89.8%	135%	145%	106%	70.3%	91.9%	104%	89%	111%	86.7%	114%	92.1%	92.8%	103%	98.9%	99.8%	91.6%	123%	98.4%
CC(C)C[C@@H](C(=O)N[C@H](C(=O)OC1CCCC1)c1ccccc1)[C@H](O)C(=O)NO [Tosedostat] (1 nM)	94.4%	100%	104%	100%	105%	102%	103%	100%	103%	107%	103%	100%	110%	98.7%	106%	103%	97.4%	109%	108%	118%	130%	109%	98.7%	94.3%	111%	101%	92.1%	100%	114%	93.3%	102%	108%	106%	100%	86.9%	108%	112%
O=C(/C=C/c1cccc(S(=O)(=O)Nc2ccccc2)c1)NO [Belinostat] (1 nM)	92.9%	93.5%	99.9%	91%	89.2%	94.9%	97.8%	96.1%	96.6%	95.8%	98.9%	91.8%	97%	87%	97.6%	91.7%	96.5%	87.8%	75.1%	109%	84.2%	97.1%	106%	93.4%	103%	92.5%	89.5%	97.4%	102%	93.1%	107%	101%	97.1%	120%	111%	91.5%	102%
COc1cc2/c(=N/c3ccc(Br)cc3F)nc[nH]c2cc1OCC1CCN(C)CC1 [Vandetanib] (1 nM)	93.9%	90.7%	83.8%	85.2%	87%	88.1%	92.6%	92.7%	88.7%	91.7%	94.8%	96.2%	86%	89.4%	81.8%	86.1%	102%	68.2%	118%	101%	56.1%	98.4%	107%	94.8%	94.9%	110%	87.6%	124%	88.2%	110%	106%	94.7%	112%	81.1%	82.5%	84%	97%
NC(=O)c1ccc(I)c([N+](=O)[O-])c1 [Iniparib] (1 nM)	90.9%	92.5%	83.8%	83.2%	84.2%	94.8%	94.6%	108%	96.5%	90.9%	93.8%	87.8%	86.2%	77.3%	101%	87.1%	93.5%	76.7%	128%	116%	104%	93.2%	92.8%	103%	99.1%	86%	113%	85.1%	98.9%	87.6%	97.1%	94.5%	87.8%	108%	130%	92.1%	95%
CNC(=O)c1cc(Oc2ccc(NC(=O)Nc3ccc(Cl)c(C(F)(F)F)c3)c(F)c2)ccn1 [Regorafenib] (1 nM)	99.5%	100%	94.2%	95.7%	97.2%	114%	104%	99.9%	94.1%	100%	102%	98.5%	115%	104%	110%	99.9%	96.4%	112%	90.1%	84.9%	88.5%	103%	91.4%	106%	108%	88.9%	102%	89.7%	101%	121%	100%	105%	131%	104%	83.5%	100%	96%
